According to publication PMC11790914, “Chemogenomics for steroid hormone receptors (NR3)” (Communications Chemistry, 2025):
Where “and” joins values, the source holds several entries; their conditions need not be identical. Identical values can stand only once. Like-named read-outs stand apart in the source and are kept apart here.

Assays:
[1] = system: NF-κB activity in HEK293 NF-κB reporter cells; assay: NF-kB activity assay (GFP reporter, ionomycin/PMA); format: cell-based; conditions: for Mean NFκB response: n=3; for NF-κB activity (inflammatory response to ionomycin/PMA): HEK293 NF-κB reporter cells, compounds at recommended concentrations, imaged over 24 h, n = 3
In short: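 Reporter readout: GFP-expressing cells normalized to confluence, imaged every 90 min across 24 h after ionomycin (100 ng/mL)/PMA (10 ng/mL) stimulation of HEK293 cells pre-treated 4 h with compound (0.1% DMSO); triplicate independent experiments.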

NR3C4 (AR) = conditions: cited from earlier work
HEK293T cells [2] = assay: Cytotoxicity: metabolic activity (WST-8 / CCK-8 assay); conditions: 1 µM; HEK293T, 24 h; WST-8; normalized to 0.1% DMSO; single replicates
Method: Cells were incubated with the test compounds at the indicated concentrations solubilized with 0.1% DMSO for 24 h. Growth-rate was determined based on the change in confluence over 24 h normalized to the change in confluence of cells treated with the 0.1% DMSO control (n = 10). Metabolic activity was determined with a water-soluble tetrazolium-8 (WST-8) assay (n = 8) after 24 h treatment. Apoptotic cells were detected with a fluorogenic DNA dye coupled to the caspase-3/7 recognition sequence (DEVD) after 24 h treatment and the apoptotic cell count was normalized to 0.1% DMSO treated cells (n = 6).
HEK293T cells (German Collection of Microorganisms and Cell Culture GmbH, DSMZ; #ACC305) were cultured in DMEM high glucose, supplemented with 10% fetal calf serum (FCS), sodium pyruvate (1 mM), penicillin (100 µ/mL) and streptomycin (100 µg/mL) at 37 °C and 5% (v/v) CO2, and seeded in pre-coated (10 µg/mL collagen G solution (Merck KgaA; #L7213) for 30 min at 37 °C) 96-well plates (2 × 10^5 cells per well). After 24 h, the cells were treated with the respective NR3 CG compound candidate at the recommended concentration, bexarotene (100 µM) or doxorubicin (30 µM) as positive controls in DMEM high glucose supplemented with 0.1% FCS, penicillin (100 µ/mL), streptomycin (100 µg/mL) and 0.1% DMSO, or 0.1% DMSO alone as an untreated control. Each sample was prepared in at least four biologically independent replicates. […] Thereafter, the medium was aspirated and the cells were incubated for 3 h with 90 µL DMEM high glucose supplemented with 0.2% FCS, penicillin (100 µ/mL) and streptomycin (100 µg/mL) and additionally containing 10 µL Cell Counting Kit 8 solution (CCK-8; MedChemExpress, Monmouth Junction, New York, USA; #HY-K0301), and absorbance was measured at 1 h, 2 h and 3 h of incubation at 450 nm on a Tecan Spark Cyto to assess metabolic activity of the cells. Before drug administration, after the first medium exchange, 24 h after drug administration, and after fluorescence imaging cell confluence was assessed using the Tecan Spark Cyto, to account for changes in cell confluence due to drug administration and cell handling. Compound effects on cell confluence, apoptosis, metabolic activity and necrosis were normalized to the vehicle control of each biological replicate individually.

Gal4-VP16 = format: cell-based; conditions: 1 µM; vs. DMSO ctrl; single replicates n=1-3
GSK3B = molecular target: T1, GSK3B (Homo sapiens, UniProt P49841); assay: Liability panel screening by DSF: GSK3B; format: binding; conditions: read-out: Mean ΔTM GSK3B
T1 construct: made in house
T1 sequence (P49841 whole entry, species assumed): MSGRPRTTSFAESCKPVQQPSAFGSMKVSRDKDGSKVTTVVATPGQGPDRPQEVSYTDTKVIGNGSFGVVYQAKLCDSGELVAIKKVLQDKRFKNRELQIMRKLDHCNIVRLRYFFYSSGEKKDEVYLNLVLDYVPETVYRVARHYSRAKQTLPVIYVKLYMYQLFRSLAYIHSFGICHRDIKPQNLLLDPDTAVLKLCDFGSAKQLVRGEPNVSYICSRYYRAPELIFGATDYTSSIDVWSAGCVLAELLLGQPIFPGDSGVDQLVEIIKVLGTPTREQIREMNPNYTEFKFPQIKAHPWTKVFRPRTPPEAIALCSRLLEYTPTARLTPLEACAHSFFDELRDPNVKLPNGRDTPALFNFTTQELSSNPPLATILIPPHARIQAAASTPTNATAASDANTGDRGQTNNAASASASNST

CDK2 = molecular target: T2, CDK2 (Homo sapiens, UniProt P24941); assay: Liability panel screening by DSF: CDK2; format: binding; conditions: read-out: Mean ΔTM CDK2
T2 construct: made in house
In short: (§1)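 Recombinant protein at 2 µM in 10 mM HEPES pH 7.5 with 500 mM NaCl was mixed with SYPRO Orange (1:1000) and heated at 3 °C/min up to 85 °C. Tm was taken as the Boltzmann-fit inflection point. Shifts are ∆Tm in K from technical duplicates.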

[3] = system: ATF6 activity in Hela ATF6 reporter cells; assay: Endoplasmic reticulum stress assay (ATF6 Renilla luciferase reporter, tunicamycin); format: cell-based; conditions: Homo sapiens, HeLa, 1 µM, single replicates n=1 to n=5; read-out: ER stress [rel. ATF6 activity]
In short: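 ER stress was induced by 100 ng/mL tunicamycin added 4 h after compound (0.1% DMSO) to HeLa ATF6 reporter cells. After 18 h more, Renilla luciferase signal was read and expressed relative to DMSO control, n=5 biological replicates.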

FGFR3 = molecular target: T3, FGFR3 (Homo sapiens, UniProt P22607); assay: Liability panel screening by DSF: FGFR3; format: binding; conditions: read-out: Mean ΔTM FGFR3
T3 construct: made in house
T3 sequence (P22607 23-806, species assumed): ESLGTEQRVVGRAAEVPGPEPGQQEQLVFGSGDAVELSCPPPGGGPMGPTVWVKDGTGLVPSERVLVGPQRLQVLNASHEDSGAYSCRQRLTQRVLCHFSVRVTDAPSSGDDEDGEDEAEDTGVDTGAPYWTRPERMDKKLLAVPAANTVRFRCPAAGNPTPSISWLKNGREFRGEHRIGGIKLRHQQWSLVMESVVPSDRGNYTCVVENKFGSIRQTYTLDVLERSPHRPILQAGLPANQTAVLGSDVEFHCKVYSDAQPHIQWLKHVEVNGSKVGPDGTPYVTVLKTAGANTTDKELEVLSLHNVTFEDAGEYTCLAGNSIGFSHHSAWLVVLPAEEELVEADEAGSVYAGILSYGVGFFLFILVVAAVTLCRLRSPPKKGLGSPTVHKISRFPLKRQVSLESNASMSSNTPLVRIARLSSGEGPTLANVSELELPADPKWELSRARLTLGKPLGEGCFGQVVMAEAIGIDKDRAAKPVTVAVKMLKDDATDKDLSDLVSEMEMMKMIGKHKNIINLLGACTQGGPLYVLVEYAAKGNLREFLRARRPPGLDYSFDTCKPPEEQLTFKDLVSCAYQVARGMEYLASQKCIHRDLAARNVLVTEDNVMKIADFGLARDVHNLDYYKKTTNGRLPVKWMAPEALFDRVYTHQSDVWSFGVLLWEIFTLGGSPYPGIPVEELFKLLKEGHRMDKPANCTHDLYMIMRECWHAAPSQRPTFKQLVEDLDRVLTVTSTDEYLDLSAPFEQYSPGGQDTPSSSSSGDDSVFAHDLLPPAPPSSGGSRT
In short: as §1

AURKA = molecular target: T4, AURKA (Homo sapiens, UniProt O14965); assay: Liability panel screening by DSF: AURKA; format: binding; conditions: read-out: Mean ΔTM AURKA
T4 construct: made in house
T4 sequence (O14965 1-403): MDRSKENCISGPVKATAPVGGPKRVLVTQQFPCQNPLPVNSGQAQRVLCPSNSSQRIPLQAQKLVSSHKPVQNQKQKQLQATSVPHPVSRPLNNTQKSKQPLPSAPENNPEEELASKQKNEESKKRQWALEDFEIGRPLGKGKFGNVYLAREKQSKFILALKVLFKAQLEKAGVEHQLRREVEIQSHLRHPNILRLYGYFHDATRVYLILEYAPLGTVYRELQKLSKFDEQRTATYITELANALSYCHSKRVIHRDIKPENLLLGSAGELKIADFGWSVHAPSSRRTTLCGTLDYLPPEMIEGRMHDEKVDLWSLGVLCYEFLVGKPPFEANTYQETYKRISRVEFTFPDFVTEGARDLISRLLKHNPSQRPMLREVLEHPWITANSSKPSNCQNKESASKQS
In short: as §1

HEK293T cells [4] = assay: Cytotoxicity: growth-rate (change in confluence over 24 h); conditions: 1 µM, normalized to 0.1% DMSO control, single replicates (n=1...)
BRPF1 = molecular target: T5, BRPF1 (Homo sapiens, UniProt P55201); assay: Liability panel screening by DSF: BRPF1; format: binding; conditions: read-out: Mean ΔTM BRPF1
T5 construct: This panel comprised ten highly ligandable kinases and bromodomains; made in house
T5 sequence (P55201 628-732 limits assumed): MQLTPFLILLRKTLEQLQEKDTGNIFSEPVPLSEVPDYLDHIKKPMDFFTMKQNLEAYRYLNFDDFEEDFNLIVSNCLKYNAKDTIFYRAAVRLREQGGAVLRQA
In short: as §1

TRIM24 = molecular target: T6, TRIM24 (Homo sapiens, UniProt O15164); assay: Liability panel screening by DSF: TRIM24; format: binding; conditions: read-out: Mean ΔTM TRIM24
T6 construct: This panel comprised ten highly ligandable kinases and bromodomains; made in house
T6 sequence (O15164 899-1004 limits assumed): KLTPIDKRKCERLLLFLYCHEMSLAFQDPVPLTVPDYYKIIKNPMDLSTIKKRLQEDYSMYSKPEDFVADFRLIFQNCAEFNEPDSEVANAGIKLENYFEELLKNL
In short: as §1

CSNK1D = molecular target: T7, CSNK1D (Homo sapiens, UniProt P48730); assay: Liability panel screening by DSF: CSNK1D; format: binding; conditions: read-out: Mean ΔTM CSNK1D
T7 construct: made in house
T7 sequence (P48730 whole entry, species assumed): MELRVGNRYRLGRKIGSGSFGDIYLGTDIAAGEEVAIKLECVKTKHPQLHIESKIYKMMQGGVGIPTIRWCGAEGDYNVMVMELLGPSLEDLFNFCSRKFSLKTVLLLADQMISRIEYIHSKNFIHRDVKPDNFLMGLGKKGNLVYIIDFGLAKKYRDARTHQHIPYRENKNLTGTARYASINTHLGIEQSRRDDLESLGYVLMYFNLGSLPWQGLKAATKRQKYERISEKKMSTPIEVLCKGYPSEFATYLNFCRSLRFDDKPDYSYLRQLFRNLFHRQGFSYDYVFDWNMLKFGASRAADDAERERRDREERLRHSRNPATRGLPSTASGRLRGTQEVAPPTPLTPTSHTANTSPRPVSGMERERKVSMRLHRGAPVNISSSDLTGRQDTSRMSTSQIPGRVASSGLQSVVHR
In short: as §1

ABL1 = molecular target: T8, ABL1 (Homo sapiens, UniProt P00519); assay: Liability panel screening by DSF: ABL1; format: binding; conditions: read-out: Mean ΔTM ABL1
T8 construct: made in house
T8 sequence (P00519 whole entry, species assumed): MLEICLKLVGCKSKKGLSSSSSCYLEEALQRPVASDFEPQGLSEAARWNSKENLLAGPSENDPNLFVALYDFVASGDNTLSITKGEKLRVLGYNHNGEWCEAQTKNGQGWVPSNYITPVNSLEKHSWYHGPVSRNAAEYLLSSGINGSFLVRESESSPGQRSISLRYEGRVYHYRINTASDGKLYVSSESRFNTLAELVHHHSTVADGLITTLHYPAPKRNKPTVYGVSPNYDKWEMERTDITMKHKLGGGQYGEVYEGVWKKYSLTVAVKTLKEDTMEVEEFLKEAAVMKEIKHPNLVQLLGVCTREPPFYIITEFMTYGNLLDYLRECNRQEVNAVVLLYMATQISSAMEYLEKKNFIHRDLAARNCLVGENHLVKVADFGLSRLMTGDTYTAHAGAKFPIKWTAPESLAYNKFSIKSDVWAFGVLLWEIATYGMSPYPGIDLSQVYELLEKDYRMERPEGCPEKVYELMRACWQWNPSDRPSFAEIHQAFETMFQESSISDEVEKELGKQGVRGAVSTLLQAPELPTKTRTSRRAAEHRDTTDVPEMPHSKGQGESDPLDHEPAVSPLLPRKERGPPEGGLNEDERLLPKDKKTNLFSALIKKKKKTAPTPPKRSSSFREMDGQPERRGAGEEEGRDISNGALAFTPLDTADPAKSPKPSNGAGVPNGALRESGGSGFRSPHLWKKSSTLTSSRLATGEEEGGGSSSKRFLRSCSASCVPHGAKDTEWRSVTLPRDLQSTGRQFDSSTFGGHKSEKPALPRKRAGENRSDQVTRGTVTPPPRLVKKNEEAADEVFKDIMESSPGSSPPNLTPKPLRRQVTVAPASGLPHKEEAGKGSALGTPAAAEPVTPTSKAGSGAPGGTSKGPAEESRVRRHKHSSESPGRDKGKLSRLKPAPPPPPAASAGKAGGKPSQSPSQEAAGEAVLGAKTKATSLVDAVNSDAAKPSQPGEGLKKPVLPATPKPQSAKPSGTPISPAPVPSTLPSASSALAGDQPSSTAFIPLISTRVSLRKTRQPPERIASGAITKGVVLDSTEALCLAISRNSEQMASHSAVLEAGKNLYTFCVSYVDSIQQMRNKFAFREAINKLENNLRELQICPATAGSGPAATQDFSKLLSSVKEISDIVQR
In short: as §1

BRD4 = molecular target: T9, BRD4 (Homo sapiens, UniProt O60885); assay: Liability panel screening by DSF: BRD4; format: binding; conditions: read-out: Mean ΔTM BRD4
T9 construct: This panel comprised ten highly ligandable kinases and bromodomains; made in house
In short: as §1

MAPK1 = molecular target: T10, MAPK1 (Homo sapiens, UniProt P28482); assay: Liability panel screening by DSF: MAPK1; format: binding; conditions: read-out: Mean ΔTM MAPK1
T10 construct: made in house
T10 sequence (P28482 whole entry, species assumed): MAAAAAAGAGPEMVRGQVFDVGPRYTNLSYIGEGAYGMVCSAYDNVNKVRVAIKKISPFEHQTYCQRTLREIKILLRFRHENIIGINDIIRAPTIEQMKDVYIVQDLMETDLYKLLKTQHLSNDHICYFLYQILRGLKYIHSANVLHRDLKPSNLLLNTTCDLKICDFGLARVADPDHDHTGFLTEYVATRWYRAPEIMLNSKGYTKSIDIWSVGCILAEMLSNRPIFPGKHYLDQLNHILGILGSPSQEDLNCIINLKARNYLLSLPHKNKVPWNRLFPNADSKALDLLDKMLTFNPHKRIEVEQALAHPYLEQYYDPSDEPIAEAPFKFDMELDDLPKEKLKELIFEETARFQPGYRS
In short: as §1

HEK293T cells [5] = assay: Cytotoxicity: apoptosis induction (caspase-3/7 DEVD fluorogenic DNA dye); conditions: 1 µM; HEK293T, 24 h; apoptotic cell count normalized to 0.1% DMSO; single replicates
HEK293T cells [6] = assay: Cytotoxicity: necrosis induction (red fluorescent dye for permeable plasma membranes); format: cell-based; conditions: 1 µM, 24 h, necrotic cell count normalized to 0.1% DMSO, single replicates;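 further: compounds applied in DMEM high glucose with 0.1% FCS and 0.1% DMSO, necrotic HEK293T cells counted by red staining of cells whose plasma membranes had become permeable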

Compound: CC(=O)Nc1ccc(OC[C@](C)(O)C(=O)Nc2ccc([N+](=O)[O-])c(C(F)(F)F)c2)cc1 [Andarine]
- Mean NFκB response ([1]; 1 µM, 1,5 h): 2599.83 GFP+-cells/confluence ∙ 1000
- Mean NFκB response ([1]; 1 µM, 4,5 h): 2912.69 GFP+-cells/confluence ∙ 1000
- Mean NFκB response ([1]; 1 µM, 7,5 h): 4207.99 GFP+-cells/confluence ∙ 1000
- Mean NFκB response ([1]; 1 µM, 10,5 h): 8408.10 GFP+-cells/confluence ∙ 1000
- Mean NFκB response ([1]; 1 µM, 13,5 h): 11806.03 GFP+-cells/confluence ∙ 1000
- Mean NFκB response ([1]; 1 µM, 16,6 h): 14271.49 GFP+-cells/confluence ∙ 1000
- Mean NFκB response ([1]; 1 µM, 19,5 h): 16631.36 GFP+-cells/confluence ∙ 1000
- Mean NFκB response ([1]; 1 µM, 22,5 h): 18398.57 GFP+-cells/confluence ∙ 1000
- Mean NFκB response ([1]; 1 µM, 3 h): 2627.11 GFP+-cells/confluence ∙ 1000
- Mean NFκB response ([1]; 1 µM, 6 h): 3252.11 GFP+-cells/confluence ∙ 1000
- Mean NFκB response ([1]; 1 µM, 9 h): 5899.76 GFP+-cells/confluence ∙ 1000
- Mean NFκB response ([1]; 1 µM, 12 h): 10166.51 GFP+-cells/confluence ∙ 1000
- Mean NFκB response ([1]; 1 µM, 15 h): 13144.54 GFP+-cells/confluence ∙ 1000
- Mean NFκB response ([1]; 1 µM, 18 h): 15566.10 GFP+-cells/confluence ∙ 1000
- Mean NFκB response ([1]; 1 µM, 21 h): 17508.52 GFP+-cells/confluence ∙ 1000
- Mean NFκB response ([1]; 1 µM, 24 h): 19523.33 GFP+-cells/confluence ∙ 1000
- NF-κB activity (inflammatory response to ionomycin/PMA) [1]: anti-inflammatory effect
- rel. activity from literature, NR3C4 (AR): % of DHT (NR3C4 (AR); of DHT (dihydrotestosterone), ref Supplementary Table 1): 93 ± 7%
- EC50 (NR3C4 (AR); read-out: Potency [nM] EC50, NR3C4 (AR), (lit.), ref Supplementary Table 1): 4 ± 0.7 nM
- Metabolic activity [MA] (HEK293T cells [2]): 0.98 and 1.03 and 0.99 and 1.08 and 1.06 (2×) and 1.01 and 1.09
- VP16 control [fold reporter gene activity] (Gal4-VP16): 1.16 fold reporter gene activity and 1.15 fold reporter gene activity and 1.08 fold reporter gene activity
- ΔTm at 20 µM (GSK3B): 0.71 °C
- ΔTm at 20 µM (CDK2): 0.35 °C
- activity at 1 µM [3]: 93%
- ΔTm at 20 µM (FGFR3): 2.59 °C
- ΔTm at 20 µM (AURKA): -0.0326 °C
- Growth rate [GR] (HEK293T cells [4]): 0.83 (2×) and 2.46 and 0.88 and 1.35 and 0.73 and 0.55 and 1.46 and 1.51 and 2.55
- ΔTm at 20 µM (BRPF1): 0.97 °C
- ΔTm at 20 µM (TRIM24): 0.0216 °C
- ΔTm at 20 µM (CSNK1D): 0.23 °C
- ΔTm at 20 µM (ABL1): 0.78 °C
- ΔTm at 20 µM (BRD4): -0.77 °C
- ΔTm at 20 µM (MAPK1): -0.26 °C
- Apoptosis induction [AI] (HEK293T cells [5]): 0.62 and 0.88 and 1.01 and 1.08 and 0.95 and 0.84
- Necrosis induction [NI] (HEK293T cells [6]): 0.97 and 1.10 and 1.08 and 1.02

Compound: CC(=O)O[C@]1(C(C)=O)CC[C@H]2[C@@H]3C=C(Cl)C4=CC(=O)[C@@H]5C[C@@H]5[C@]4(C)[C@H]3CC[C@@]21C [Cyproterone acetate]
- Mean NFκB response ([1]; 1 µM, 1,5 h): 3306.11 GFP+-cells/confluence ∙ 1000
- Mean NFκB response ([1]; 1 µM, 4,5 h): 3956.53 GFP+-cells/confluence ∙ 1000
- Mean NFκB response ([1]; 1 µM, 7,5 h): 9166.88 GFP+-cells/confluence ∙ 1000
- Mean NFκB response ([1]; 1 µM, 10,5 h): 19295.79 GFP+-cells/confluence ∙ 1000
- Mean NFκB response ([1]; 1 µM, 13,5 h): 27594.44 GFP+-cells/confluence ∙ 1000
- Mean NFκB response ([1]; 1 µM, 16,6 h): 34636.12 GFP+-cells/confluence ∙ 1000
- Mean NFκB response ([1]; 1 µM, 19,5 h): 38741.56 GFP+-cells/confluence ∙ 1000
- Mean NFκB response ([1]; 1 µM, 22,5 h): 41845.76 GFP+-cells/confluence ∙ 1000
- Mean NFκB response ([1]; 1 µM, 3 h): 3525.65 GFP+-cells/confluence ∙ 1000
- Mean NFκB response ([1]; 1 µM, 6 h): 5348.79 GFP+-cells/confluence ∙ 1000
- Mean NFκB response ([1]; 1 µM, 9 h): 14582.16 GFP+-cells/confluence ∙ 1000
- Mean NFκB response ([1]; 1 µM, 12 h): 23573.19 GFP+-cells/confluence ∙ 1000
- Mean NFκB response ([1]; 1 µM, 15 h): 31392.99 GFP+-cells/confluence ∙ 1000
- Mean NFκB response ([1]; 1 µM, 18 h): 36648.57 GFP+-cells/confluence ∙ 1000
- Mean NFκB response ([1]; 1 µM, 21 h): 40465.37 GFP+-cells/confluence ∙ 1000
- Mean NFκB response ([1]; 1 µM, 24 h): 42894.68 GFP+-cells/confluence ∙ 1000
- NF-κB activity (inflammatory response to ionomycin/PMA) [1]: tended to enhance NF-κB activity
- rel. activity from literature, NR3C4 (AR): % rem. act. of DHT (NR3C4 (AR)): 52 ± 6%
- IC50 (NR3C4 (AR); read-out: Potency [nM] IC50, NR3C4 (AR)): 26 ± 23 nM
- Metabolic activity [MA] (HEK293T cells [2]): 1.02 (2×) and 0.92 and 0.98 and 1.01 and 0.94 and 0.99 and 1.05
- VP16 control [fold reporter gene activity] (Gal4-VP16): 1.23 fold reporter gene activity and 1.09 fold reporter gene activity and 0.95 fold reporter gene activity
- ΔTm at 20 µM (GSK3B; DSF, 20 µM, n=2): -0.72 °C
- ΔTm at 20 µM (CDK2; DSF, 20 µM, n=2): 0.15 °C
- ΔTm at 20 µM (FGFR3; DSF, 20 µM, n=2): 0.57 °C
- ΔTm at 20 µM (AURKA; DSF, 20 µM, n=2): -1.49 °C
- Growth rate [GR] (HEK293T cells [4]): 1.11 and 1.76 and 1.28 and 1.77 and 1.08 and 0.80 (2×) and 0.94 and 0.96 and 1.44
- ΔTm at 20 µM (BRPF1; DSF, 20 µM, n=2): -1.28 °C
- ΔTm at 20 µM (TRIM24; DSF, 20 µM, n=2): -1.08 °C
- ΔTm at 20 µM (CSNK1D; DSF, 20 µM, n=2): 0.16 °C
- ΔTm at 20 µM (ABL1; DSF, 20 µM, n=2): 0.36 °C
- ΔTm at 20 µM (BRD4; DSF, 20 µM, n=2): -1.71 °C
- ΔTm at 20 µM (MAPK1; DSF, 20 µM, n=2): -0.22 °C
- Apoptosis induction [AI] (HEK293T cells [5]): 0.80 and 0.89 and 0.91 and 1.07 and 1.28 and 0.67
- Necrosis induction [NI] (HEK293T cells [6]): 0.92 and 0.81 and 0.87 and 0.98
